Our source for the MIC values is ChEMBL document CHEMBL1134025, “Thiosugars. Part 9: synthesis and biological evaluation of some 4'-thio-L-arabino nucleoside analogues” (2001).

Converted amounts (≈) assume the structure as drawn.

This experiment concerns Vaccinia virus. The experiment is described as follows: Minimum inhibitory concentration required to reduce Vaccinia virus induced cytopathogenicity by 50%. Type of experiment: functional. As to conditions: Orthopoxvirus vaccinia. In general terms: Protection from cytopathic effect is a common read-out in antiviral testing.
Compound `Cc1cn([C@H]2S[C@@H](CO)[C@H](O)[C@H]2O)c(=O)[nH]c1=O` gave an MIC of 400 µg/mL (≈ 1460 µM). On to `Cc1cn([C@@H]2S[C@@H](CO)[C@H](O)[C@H]2O)c(=O)[nH]c1=O`, for which the MIC came to 400 µg/mL (≈ 1460 µM). In turn, `Nc1ccn(C2S[C@@H](CO)[C@H](O)[C@H]2O)c(=O)n1` (some centres not stated) came in with an MIC of 400 µg/mL (≈ 1540 µM).

Turning to `O=c1ccn([C@H]2S[C@@H](CO)[C@H](O)[C@H]2O)c(=O)[nH]1`, the MIC came out at 400 µg/mL (≈ 1540 µM).

The compound `Nc1ncnc2c1ncn2[C@@H]1S[C@@H](CO)[C@H](O)[C@H]1O` had an MIC of 400 µg/mL (≈ 1410 µM). As for `Nc1ncnc2c1ncn2[C@H]1S[C@@H](CO)[C@H](O)[C@H]1O`, the MIC came out at 400 µg/mL (≈ 1410 µM). As to `O=c1ccn([C@@H]2S[C@@H](CO)[C@H](O)[C@H]2O)c(=O)[nH]1`, the MIC was determined as 400 µg/mL (≈ 1540 µM).
